11 molecules from PMC10128061, “Targeting Sterylglucosidase A to Treat Aspergillus fumigatus Infections” (mBio, 2023) can be followed below.

The kcat is the number of substrate molecules converted per active site and unit of time at saturation. One may read the IC50 as the concentration that gives 50% inhibition.

For one data set, the target named is A. fumigatus SglA (Aspergillus fumigatus, UniProt Q4WXA7). Kind of data set: Ergosterol 3β-D-glucoside (ErgGlc) hydrolysis by SglA, ergosterol quantified by HPLC. In kind it is biochemical. On the procedure:
We assessed the potential inhibition of SglA enzymatic activity toward ErgGlc by the seven derivatives at concentrations of 0.1, 1, 10, and 100 μM.
A 50-μL volume of wild-type Af SglA containing 10 ng of protein (0.11 pmol) and 50 μL of mixed micelles of lipid and Triton X-100 in 50 mM sodium acetate buffer (pH 5.5) with 150 mM NaCl, 5 mM βME, and 5 mM DTT were mixed and incubated at 37°C for 20 min (ErgGlc; Avanti Polar Lipids). After the incubation period, each reaction was quenched with a 2:1 chloroform-methanol solution, and the organic phase was collected and dried. Then, the lipid content was resuspended in […] methanol and analized by HPLC using Agilent 1260 Infinity II (Agilent Technologies). Total ErgGlc and ergosterol were detected at 282 nm on a C8 column with a flow rate of 0.5 mL/min in methanol-water (90:10) buffered with 1 mM ammonium formate and 0.2% formic acid.

Data set [1] relates to wild-type Af. Kind of data set: Filamentation assay (hyphal length). In kind it is cell-based, Aspergillus fumigatus. The conditions noted are these: 12 h. As for the experimental part:
To evaluate hyphal growth, conidial suspensions of the Af wild-type strain ΔKu80pyrG1a and the Δsgla and Δsgla+SGLA strains were obtained as described above. Then, the assay conditions were performed as previously described by Fernandes et al. ([16]). For that, 1 × 10^5 conidia of strain ΔKu80pyrG1a were inoculated onto a glass-bottom dish containing 2 mL of MM or MM+UU with and without the experimental compounds in various concentrations and grown at 37°C for 10 to 12 h. MM broth without the compounds were used for the mutant and the reconstituted strains. The living hyphae growing attached to the glass were analyzed by differential inference contrast (DIC) microscopy using a Zeiss Observer D.1 microscope, and the hyphal length was measured using ImageJ software.

The subject of data set [2] is Af wild-type strain. The data set is described as follows: Lung fungal burden quantification by qPCR. As to conditions: hit B 20, hit C 60, B7 5 mg/kg/day intraperitoneally. In kind it is in vivo, CBA/J mice. As for the experimental part:
Lung fungal burden was assessed by the determination of the amplification of fungal 18S DNA by qPCR. The lungs of euthanized mice were aseptically removed and immediately frozen in liquid nitrogen. Genomic DNA extraction was carried out as previously described by Malavazi and Goldman ([40]) with modifications. Previous to the genomic DNA extraction, the lungs were lyophilized for 2 to 3 days, ground using 2-mm glass beads, resuspended in 1 mL of lysis buffer, and vortexed thoroughly. One milliliter of phenol-chloroform–isoamyl alcohol (25:24:1), stabilized and saturated with 100 mM Tris-EDTA to pH 8.0 (Sigma-Aldrich), was added, and the mixture was vortexed for 10 min to extract nucleic acid. The mixture was centrifuged, and the aqueous phase was collected, and the genomic DNA was precipitated with 500 μL isopropanol. The DNA pellet was washed with 500 μL cold 70% ethanol and air dried, and the DNA pellet was resuspended in 100 μL of DNase-free water. The primers Fungal 18S 5′ UTR fw ([…]) and 3′ UTR rv ([…]) and the mouse glyceraldehyde-3-phosphate dehydrogenase (GAPDH) primers 5′ UTR fw ([…]) and 3′ UTR rv ([…]) were amplified using SYBR green PCR master mix (Thermo Fisher Scientific).

In data set [3] the test system is wild-type Af. Kind of data set: Ergosterol 3-β-D-glucoside accumulation in live cells (LC-MS). Type of data set: cell-based, Aspergillus fumigatus. The conditions noted are these: 48 h; for ErgGlc accumulation versus control (untreated wild-type Af): 100 and 500 μM. On the procedure: Wild-type Af ΔKu80pyrG1a and the mutant Δsgla strain were cultivated in yeast extract-glucose medium (YAG) (2% [wt/vol] glucose, 0.5% [wt/vol] yeast extract, 1× trace elements, 1× amino acid solution, 2% [wt/vol] bacteriological agar) for 48 h at 37°C. High-nitrate salts, trace elements, and amino acid solutions were prepared as previously described ([37]). The medium was supplemented with 1.2 g/L of uracil and uridine (UU), generating YAG+UU medium when the strain ΔKu80pyrG1a was used. After that, the a conidial suspension in water was obtained, and a pellet with 1 × 10^7 conidia was treated in minimal medium broth pH 6.5 (MM or MM+UU) (1% [wt/vol] glucose, 1× high-nitrate salts, 1× trace elements) for 48 h at 37°C under agitation, with the hits selected, according to the toxicity criteria, at various concentrations. […] After that, the resultant hyphal pellet was used for lipid extraction. Then, the total lipid was extracted as described by Singh et al. ([39]). The dried samples were resuspended in 2:1 chloroform-methanol for liquid chromatography-mass spectrometry (LC-MS) analysis. A standard ErgGlc from Avanti Polar Lipids was used as a control for the calibration curve. Data were normalized to the total inorganic phosphate content in the sample.

Data set [4] concerns human lung epithelial cancer cell line A549. As to conditions: 24 h. On the procedure: The cells were maintained in Dulbecco’s modified Eagle medium (DMEM) containing 10% fetal bovine serum (FBS) and 1% penicillin-streptomycin. At passage 11, 10^5 cells were transferred into each well of 96-well plates and cultured for 18 to 24 h to allow the cells to adhere to the well surface. Next, the medium was removed, and fresh medium containing the selected compounds at concentration range of 1 to 512 μM was added to the wells. Controls with equivalent serial concentrations of DMSO were also evaluated and compared with a control without DMSO. The plate was incubated at 37°C with 5% CO2. After 24 h, the supernatant was removed and 50 μL of 5 mg/mL 3-(4,5-dimethylthiazol-2-yl)-2,5-diphenyltetrazoliumbromide (MTT) solution in PBS was added to each well. The plates were incubated for an additional 4 h, and the formazan crystals formed inside the cell were dissolved by adding 50 μL DMSO. Next, the absorbance was measured at 570 nm, and the calculated LD50 was divided by the IC50 of each hit in order to determine the SI of each compound.

In another data set the target is Af SglA (Aspergillus fumigatus, UniProt Q4WXA7). The data set is described as follows: HTS / resorufin 3β-D-glucopyranoside (ResGlp) enzymatic assay of SglA. In kind it is biochemical. The conditions noted are these: primary screen, ResGlp as the substrate, single compounds 0.25 to 4 μM. On the procedure:
(§1) Resorufin 3β-D-glucopyranoside (ResGlp; Sigma-Aldrich) enzyme kinetic assays were performed according to methods described by Pereira de Sa et al. ([17]). Reaction buffer contained 50 mM citric acid, 176 mM K2HPO4 (pH 6), 0.01% Tween 20, and 10 mM sodium taurocholate. The reaction was carried out in a black 96-well plate using 0.23 pmol of SglA with 100 μM ResGlp substrate. 10 μL/well of ResGlp was added to each well and the reaction was initiated by adding 20 μL enzyme (0.23 pmol). After incubation at 37°C for 30 min, the fluorescence was read at an excitation of 570 (±10) nm and an emission of 610 (±10) nm on a VersaMax microplate reader from Molecular Devices. A standard curve was prepared with serial dilutions of the free fluorophore, resorufin, in the same volume of assay buffer. All reactions were linear with respect to time and protein concentration, and the pH, temperature, and dimethyl sulfoxide (DMSO) optimal tolerance were verified.
(§2) A ChemBridge DIVERSet-CL library (ChemBridge, San Diego, CA) containing 50,000 compounds was screened to identify small molecules that inhibit Af SglA. The library was prepared in a 96-well plate format containing a cocktail of 10 compounds per well at 1 mM each in 100% DMSO. The cocktail plates were first diluted to 100 μM each (1:10 dilution in Dulbecco’s phosphate-buffered saline [DPBS]), resulting in 10% DMSO. In order to screen the compound cocktails at […] in 1% DMSO in a final reaction volume of 30 μL, an aliquot of 3 μL was added to 17 μL of buffer containing 0.23 pmol of enzyme and the reaction was started by adding 10 μL of 100 μM ResGlp. A negative control without enzyme and positive controls with and without DMSO were prepared. The plates were incubated at 37°C for 30 min. The Z′ factor was used for the assessment of the efficiency of the HTS assay for each plate. Values greater than 0.5 are considered indicators of excellent screening assay quality ([36]).

Data set [5] deals with Af wild-type strain. The data set is described as follows: Mouse model of pulmonary aspergillosis, survival. Type of data set: in vivo, CBA/J mice. On the procedure: Male and female CBA/J mice 5 to 6 weeks old were purchased from Envigo and allowed 1 week to acclimate upon arrival. One day prior to infection, the animals were immunosuppressed with 100 mg/kg of the corticosteroid triamcinolone acetonide (Alfa Aesar) subcutaneously as previously described ([16]). On the day of the infection, the animals were initially anesthetized with a ketamine-xylazine solution (95 mg of ketamine and 5 mg of xylazine per kg of body weight) intraperitoneally and then infected with 2.5 × 10^4 Af wild-type ΔKu80pyrG+ conidia in 20 μL of PBS intranasally. One hour after the procedure, intraperitoneal treatment with hit B (5 and 20 mg/kg/day) and hit C (20 and 60 mg/kg/day) was started and continued until 30 days postinfection. Mice that survived until day 30 were euthanized by CO2 inhalation and used for organ fungal burden determinations. A similar procedure was performed for derivative B7 at a dose of 5 mg/kg/day.

Data set [6] has as its system O=c1ccc2nc3ccc(O[C@@H]4O[C@H](CO)[C@@H](O)[C@H](O)[C@H]4O)cc3oc-2c1. Kind of data set: HTS / resorufin 3β-D-glucopyranoside (ResGlp) enzymatic assay of SglA. In kind it is biochemical, Aspergillus fumigatus. As to conditions: other: substrate kinetics, 0.23 pmol of SglA; pH 6.0; 37.0 °C. On the procedure:
as §1, §2

[7] abbreviates: substrate in Triton X-100 mixed micelles, 0.11 pmol SglA, 20 min.
The mark [8] stands for this setting: ErgGlc as the substrate, read-out: IC50.

Values joined by “and” are separate entries in the source; they are usually repeats but may differ in a detail not shown here. Equal values may be shown once. Read-outs that look alike come from different tables or passages of the source.

Sequence of A. fumigatus SglA (Q4WXA7 entry or part of it): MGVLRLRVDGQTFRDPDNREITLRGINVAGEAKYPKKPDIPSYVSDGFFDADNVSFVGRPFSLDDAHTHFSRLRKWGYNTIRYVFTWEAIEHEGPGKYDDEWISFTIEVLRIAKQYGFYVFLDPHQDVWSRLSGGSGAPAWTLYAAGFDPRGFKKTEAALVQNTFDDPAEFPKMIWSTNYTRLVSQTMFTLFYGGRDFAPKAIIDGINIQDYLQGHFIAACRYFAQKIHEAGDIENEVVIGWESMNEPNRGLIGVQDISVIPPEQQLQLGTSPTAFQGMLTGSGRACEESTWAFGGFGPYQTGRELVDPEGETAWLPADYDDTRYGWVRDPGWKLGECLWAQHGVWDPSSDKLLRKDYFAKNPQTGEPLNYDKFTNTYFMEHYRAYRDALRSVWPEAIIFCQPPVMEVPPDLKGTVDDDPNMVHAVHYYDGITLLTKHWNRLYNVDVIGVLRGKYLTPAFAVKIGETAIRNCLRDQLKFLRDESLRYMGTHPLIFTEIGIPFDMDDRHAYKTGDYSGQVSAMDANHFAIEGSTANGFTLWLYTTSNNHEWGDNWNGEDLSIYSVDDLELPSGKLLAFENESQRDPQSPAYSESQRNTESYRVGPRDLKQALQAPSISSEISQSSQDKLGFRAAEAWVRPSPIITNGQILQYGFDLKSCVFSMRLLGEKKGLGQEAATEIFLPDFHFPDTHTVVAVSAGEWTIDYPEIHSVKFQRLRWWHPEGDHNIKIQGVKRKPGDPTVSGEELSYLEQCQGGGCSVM
Sequence of Af SglA (Q4WXA7 entry or part of it): as above

In the case of `CC(C)[C@@H](C)/C=C/[C@@H](C)[C@H]1CC[C@H]2C3=CC=C4C[C@@H](O[C@@H]5O[C@H](CO)[C@@H](O)[C@H](O)[C@H]5O)CC[C@]4(C)[C@H]3CC[C@]12C` [ErgGlc, ergosterol 3β-D-glucoside, reference compound], on A. fumigatus SglA (setting [7]), the Km is 0.57 ± 0.09 mol% and the kcat came to 0.73 ± 0.04 s⁻¹.

`Cc1cc(CNc2cc(N)ncn2)c2[nH]c(C)c(C)c2c1` [Hit B1, N-[(2,3,5-trimethyl-1H-indol-7-yl)methyl]pyrimidine-4,6-diamine]: the IC50 at A. fumigatus SglA (setting [8]) was greater than 100 µM.

For the molecule `Cc1[nH]c2ccc(CNc3cc(NCCO)ncn3)cc2c1C` [Hit B2, 2-[(6-{[(2,3-dimethyl-1H-indol-5-yl)methyl]amino}pyrimidin-4-yl)amino]ethanol], at A. fumigatus SglA (setting [8]), the half-inhibitory concentration (IC50) turned out to be 15 µM.

On to `CCc1[nH]c2ccc(CNc3ccnc(N)n3)cc2c1C` [Hit B3, N~4~-[(2-ethyl-3-methyl-1H-indol-5-yl)methyl]pyrimidine-2,4-diamine], for which the IC50 at A. fumigatus SglA (setting [8]) is greater than 100 µM.

Turning to `Cc1cc(CNc2ccnc(N)n2)c2[nH]c(C)c(C)c2c1` [Hit B4, N~4~-[(2,3,5-trimethyl-1H-indol-7-yl)methyl]pyrimidine-2,4-diamine], the IC50 on A. fumigatus SglA (setting [8]) is greater than 100 µM.

Turning to `Cc1[nH]c2ccc(CNc3cc(N4CCOCC4)ncn3)cc2c1C` [Hit B5, N-[(2,3-dimethyl-1H-indol-5-yl)methyl]-6-morpholin-4-ylpyrimidin-4-amine], the IC50 on A. fumigatus SglA (setting [8]) is 15 µM.

Turning to `CCc1[nH]c2ccc(CNc3cc(C)nc(NC)n3)cc2c1C` [Hit B6, N~4~-[(2-ethyl-3-methyl-1H-indol-5-yl)methyl]-N~2~,6-dimethylpyrimidine-2,4-diamine], the IC50 at A. fumigatus SglA (setting [8]) came out at 9 µM.

`CCc1[nH]c2ccc(CNc3nc(C)cc(NC)n3)cc2c1C` [Hit B7, N~2~-[(2-ethyl-3-methyl-1H-indol-5-yl)methyl]-N~4~,6-dimethylpyrimidine-2,4-diamine]: the “hyphal length compared with hit B” value with wild-type Af [1] (50 and 100 μM) is recorded as “shorter hyphae than hit B”. Moreover, at A. fumigatus SglA, inhibition was half-maximal at 3 µM (IC50). The “lung fungal burden of mice that survived 30 days” value (shortened to “lung fungal burden”) in the data set with Af wild-type strain [2] is “full recovery”. Moreover, in the data set with wild-type Af [3] (100 μM), the “ErgGlc accumulation compared with hit B” value is “significantly higher accumulation of ErgGlc than treatment with hit B”. Also, the LD50 in data set [4] was 200 µM.

`Cc1[nH]c2ccc(CNc3cc(N)ncn3)cc2c1C` [Hit B]: the “germination and hyphal growth of Af wild-type conidia” value with wild-type Af [1] (50 and 100 μM, 37°C) is “significantly delays the germination and hyphal growth”. The IC50 against Af SglA is 1 µM and 1 to 2 µM; at A. fumigatus SglA it was 10 µM; at A. fumigatus SglA (ErgGlc as the substrate), “low micromolar range”. The “lung fungal burden” value in the data set with Af wild-type strain [2] was “no fungal burden in the lung tissue”. Further, the “ErgGlc accumulation versus control (untreated wild-type Af)” value in the data set with wild-type Af [3] is recorded as “differed significantly from the control”. In the data set with Af wild-type strain [5] (20 mg/kg/day intraperitoneally, 30 days, immunosuppressed mice), this molecule came in with a survival of animals of 50%.

Take `CC(Cc1ccc2c(c1)OCO2)c1c(-c2ccccc2)ncn1CCO` (centres unmarked) [Hit C]: the hyphal growth entry with wild-type Af [1] (all concentrations tested (1 to 100 μM)) is on record as “significantly reduced hyphal growth at all concentrations tested”. Also, the IC50 on Af SglA is 2 µM and 1 to 2 µM; against A. fumigatus SglA (ErgGlc as the substrate), “low micromolar range”. For the same molecule, the “lung fungal burden” value in the data set with Af wild-type strain [2] is reported as “full lung clearance”. Moreover, the “ErgGlc accumulation versus control (untreated wild-type Af)” value in the data set with wild-type Af [3] is recorded as “differed significantly from the control”. Also, the “survival versus infected untreated mice” value in the data set on Af wild-type strain [5] (60 mg/kg/day intraperitoneally) is given as “significantly prolonged mouse survival”. This molecule showed a survival of animals in the data set with Af wild-type strain [5] (60 mg/kg/day intraperitoneally, until day 30 postinfection) of 20%. Also, the LD50 in data set [4] is recorded as greater than 200 µM.

Take Af SglA (Aspergillus fumigatus Af293): the Km in data set [6] came to 86.2 µM.
